Tests used:
Format in all cases: in vivo
Concord grape vines [1] = test: Example 1: bud break and shoot growth of potted Concord grape vines in greenhouse; conditions: for 0-50% BB: days from bud break on the first plant to 50% of the plants with bud break, synchrony
Description: An aqueous 50% hydrogen cyanamide solution (Sigma-Aldrich, St. Louis, Mo. USA) was used as the source of hydrogen cyanamide (“HC”). The commercial product, Dormex® contains 50% hydrogen cyanamide (w/v) in an aqueous base.
Erger® was used as the source of 15-0-0 fertilizer. Erger® contains 15% total nitrogen as 3.1% ammoniacal nitrogen, 5.8% nitrate nitrogen, 6.1% urea nitrogen and 3.3% calcium derived from a mixture of ammonium nitrate, calcium nitrate and urea. Erger® is always used in combination with either 20% (w/v) Ca(NO3)2 or Activ Erger®. In the following examples, 15-0-0 fertilizer was applied at a rate of 208,340 ppm calcium nitrate, 15,060 ppm nitrogen nitrate and 15,660 ppm urea or 239,060 ppm total.
CAN-17 was used as the 17-0-0 fertilizer. CAN-17 contains 17% total nitrogen as 4.6% ammonium nitrogen and 11.6% nitrate nitrogen and 1.3% urea nitrogen and 8.8% calcium derived from ammonium nitrate and calcium nitrate. CAN-17 is available from J. R. Simplot Company (Boise, Id., USA). In the following examples, 17-0-0 fertilizer was applied at a rate of 118,200 ppm calcium nitrate and 78,900 ppm nitrogen nitrate or 197,100 ppm total. See, Table 1 below, for ratios of forchlorfenuron (“CPPU”) to fertilizer that were used in the following examples.
To assess the ability of mixtures of the invention to promote and synchronize bud break these mixtures were applied to Concord grape vines and examined for bud break (initiation of growth) and subsequent shoot development. Specifically, dormant bare-rooted Concord grape vines were planted in pots containing Pro-Mix® BX potting soil (Pro-Mix is a registered trademark of and available from Premier Horticulture Ltd.) and pruned to five nodes on a single shoot of one-year-old wood. Nodes are regions on the shoot where leaves arise from the shoot and buds are present at the axis of the shoot:leaf interface. The bud found at the shoot:leaf interface develops into the vines new shoot growth. Aqueous solutions of forchlorfenuron, HC, 15-0-0 fertilizer, 17-0-0 fertilizer, and mixtures thereof were each applied individually or sequentially or co-applied to the first-year wood of separate Concord grape vines. Plants were grown in a heated greenhouse for 49 days and evaluated for percent of vines showing bud break, periodically between seven days after application and the conclusion of the experiment. Percent bud break is determined by the number of plants that have at least one bud broken divided by the total number of plants per treatment times 100. At 51 days after treatment (“DAT”), the plants were sacrificed and measured for total number of flower clusters, total new shoot length, longest new shoot, combined new shoot fresh weight. New shoot growth is the growth arising from the dormant buds not including the woody growth that was planted and gave rise to the new growth.
(§1) To determine if the mixtures provided unexpected results, the observed combined efficacy (“OCE”) was divided by the expected combined efficacy (“ECE”) wherein the expected ECE is calculated by the Abbott method: ECE=A+B−(AB/100), • wherein ECE is the expected combined efficacy and in which A and B are the speed of bud break relative to control, the number of buds broken per plant relative to control, shoot length relative to control or shoot weight relative to control given by the single active ingredients. If the ratio between the OCE of the mixture and the ECE of the mixture is greater than 1, then greater than expected interactions are present in the mixture. (Gisi, Synergistic Interaction of Fungicides in Mixtures, The American Phytopathological Society, 86:11, 1273-1279,1996). Results

Concord grape vines [2] = test: Example 2: Concord grape vines greenhouse, forchlorfenuron and 17-0-0 fertilizer (CAN17) study
Description: (§2) To assess the ability of mixtures of the invention to promote and synchronize bud break these mixtures were applied to Concord grape vines and examined for bud break (initiation of growth) and subsequent shoot development. Specifically, dormant bare-rooted Concord grape vines were planted in pots containing Pro-Mix® BX potting soil (Pro-Mix is a registered trademark of and available from Premier Horticulture Ltd.) and pruned to five nodes on a single shoot of one-year-old wood. Nodes are regions on the shoot where leaves arise from the shoot and buds are present at the axis of the shoot:leaf interface. The bud found at the shoot:leaf interface develops into the vines new shoot growth. Aqueous solutions of forchlorfenuron, HC, 15-0-0 fertilizer, 17-0-0 fertilizer, and mixtures thereof were each applied individually or sequentially or co-applied to the first-year wood of separate Concord grape vines. […] Percent bud break is determined by the number of plants that have at least one bud broken divided by the total number of plants per treatment times 100. […] New shoot growth is the growth arising from the dormant buds not including the woody growth that was planted and gave rise to the new growth.
as §1
(§3) The experiment from Example 1 was repeated with varying quantities of forchlorfenuron and fertilizers in a greenhouse experiment.

Concord grape vines [3] = test: Example 2: Concord grape vines greenhouse, forchlorfenuron and 15-0-0 fertilizer (Erger) study
Description: as §2, §1, §3

[4] = test system: Flame seedless grape vines; test: Example 3: bud break on spurs of field-grown Flame seedless grape vines; conditions: 41 days post application
Description: as §1
To assess the ability of mixtures of the invention to promote and synchronize bud break, these mixtures were applied to field-grown Flame seedless grape vines in Thermal, Calif., and examined for bud break (initiation of growth) and subsequent shoot development. Forchlorfenuron, Dormex (50% HC), 15-0-0 (Erger®) and 17-0-0 fertilizers (CAN17), and mixtures thereof were each applied individually or sequentially (co-applied) to the separate spurs of Flame seedless grape vines. Plants were evaluated for bud break at 41 days after treatment. Results of these evaluations can be seen below in Tables 11 and 12.

Malus (apple) rootstocks = test: Example 4: bud break and shoot growth of Malus (apple) rootstocks
Description: as §1
(§4) To assess the ability of mixtures of the invention to promote and synchronize bud break, these mixtures were applied to field-grown Malus (apple) rootstocks and examined for bud break (initiation of growth) and subsequent shoot development. Forchlorfenuron, Dormex (50% HC), 15-0-0 (Erger®) and 17-0-0 fertilizers (CAN17), and mixtures thereof were each applied individually or sequentially (co-applied) to the shoots of potted Malus rootstocks that were pruned to a height of 25 centimeters. Plants were evaluated for bud break at 28 days after treatment.

[5] = test system: Prunus (stone fruit) plants; test: Example 5: bud break and shoot growth of Prunus (stone fruit) plants in greenhouse
Description: as §1
as §4, with “Prunus (stone fruit) plants in the greenhouse” for “field-grown Malus (apple) rootstocks”, “Prunus plants.” for “potted Malus rootstocks that were pruned to a height of 25 centimeters.”

[6] = combined shoot fresh weight, 52 days after planting
[7] = days after treatment to 50% bud break

In the case of N#CN [1% HC (v/v), hydrogen cyanamide], the “Percentage of Concord Grape Vines with Dormancy Relieved” value (“Percentage of Concord Grape Vines” for short) (Concord grape vines [1]; 31 days after treatment, plants with at least one bud showing a green shoot emerging) is reported as 100%, the “Percentage of Concord Grape Vines” value (Concord grape vines [1]; 34 days after treatment) is reported as 100% and the “Percentage of Concord Grape Vines” value (Concord grape vines [1]; 36 days after treatment) is reported as 100%. For the same compound, the “Percentage of Concord Grape Vines” value (Concord grape vines [1]; 38 days after treatment) was 100%, the “Percentage of Concord Grape Vines” value (Concord grape vines [1]; 43 days after treatment) was 100% and the “Percentage of Concord Grape Vines” value (Concord grape vines [1]; 45 days after treatment) was 100%. The “Percentage of Concord Grape Vines” value (Concord grape vines [1]; 51 days after treatment) was 100%, the “Broken Buds/Plant” value (Concord grape vines [1]; 51 days post-treatment) was 2.50 and the “FW/Broken Bud” value (Concord grape vines [1]; 51 days post-treatment) was 11.18 grams. The FW/Plant (Concord grape vines [1]; combined shoot fresh weight at 51 DAT) was 27.95 grams, the “50% BB” value (Concord grape vines [1]; days from application to 50% of the plants showing at least one bud broken) was 15 days and the “0-50% BB” value (Concord grape vines [1]) was 4 days. For the same compound, the “0-50% BB” value (Concord grape vines [1]; listed as 1% HC) was “four”, the “Fresh Weight at Harvest” value (Concord grape vines [2]; [6]) was 37.01 grams and the “50% BB” value (Concord grape vines [2]; [7]) was 17 days. The “Average Number of Broken Nodes Per Plant at Harvest” value (Concord grape vines [2]; harvest 52 days after planting) was 2.38, the “Fresh Weight at Harvest” value (Concord grape vines [3]; [6]) was 42.21 grams and the “50% BB” value (Concord grape vines [3]; [7]) was 17 days. For the same compound, the “Average Number of Broken Nodes Per Plant at Harvest” value (Concord grape vines [3]; harvest 52 days after planting) was 2.13, the “Broken Buds per Spur (OCE)” value [4] was 1.48 and the “Percentage of Spurs With At Least One Bud Broken (OCE)” value [4] was 72%. For the same compound, the “Fresh Weight at Harvest” value (Malus (apple) rootstocks; combined new shoot growth, harvest at 28 days) was 7.99 grams, the “50% BB” value (Malus (apple) rootstocks; [7]) was 12 days and the “Average Number of Broken Buds Per Malus Plant at Harvest” value (Malus (apple) rootstocks; harvest at 28 days) was 8.13. For the same compound, the “Fresh Weight per Bud at Harvest” value (Malus (apple) rootstocks; harvest at 28 days) was 0.98 grams, the “Average Number of Broken Nodes Per Centimeter of Shoot at Harvest” value (Malus (apple) rootstocks; harvest at 28 days, rootstocks pruned to 25 centimeters) was 0.325 and the “Fresh Weight at Harvest, FW” value ([5]; combined new shoot fresh weight, harvest at 28 days) was 4.76 grams. For the same compound, the “50% BB” value [5, 7] was 7 days.
